Laboratory results published in US4683242A, “Transdermal treatment for pain and inflammation with 2-amino-3-aroylbenzeneacetic acids, salts and esters” (A. H. Robins Company, Incorporated, priority 1985, dated 1987).
Where a name gives a salt, the structure may show the parent alone.

Assays:
[1] = tested on: Carrageenan-Induced Rat-Paw Edema; test: Carrageenan Induced Rat-Paw Edema, dermal application (antiinflammatory); type: in vivo; settings: for Measurement of Edema at 3 hr.: 4 hr pretreatment; for Activity applied dermally compared with orally for a given dose: dermal vs oral, Formula B cream (pH=3.5) for Example 74
Procedure: On the day prior to the test, an area of about 1"×1" of the lower back just above the tail of each of the rats was shaved and depilated with the commercially available hair removal preparation--Nair®. The rats were returned to the vivarium for feed and water.
The following day each rat was weighed and the volume of the left hind limb recorded. The rats were randomized into groups. Creams were applied in the following manner: 0.2 ml of the cream vehicle (control--no active agent) or formulation containing active ingredient was rubbed thoroughly onto the shaved depilated area of the rat's back for 10-15 seconds. The rats were immediately placed into plexiglass observation cylinders to restrict movement so as to prohibit accidental oral ingestion of the cream. The rats were then placed in a quiet room for 4 hr. Four hours after dosing, 0.1 ml of 1% carrageenan was injected into the left hind limb of each rat. The rats were returned to their observation cylinders and placed in the quiet room for an additional 3 hr time, after which the volume of the left hind limb was determined. The degree of edema was determined by subtracting limb volume at 0 time from the volume determined 3 hr after carrageenan injection. Two tail Dunnett's t-tests were used to compare the edema of the treated groups with the appropriate controls (Dunnet, C. W. (1955); J. AM. STAT. ASSOC. 50: 1096-1121).
Several compounds of Formula I were mixed with the creams as prepared above so as to obtain cream containing 3.2 weight percent of each compound based on the weight of free acid or the ester. Rats in groups of 6 (randomized) were each treated with 0.2 ml of the cream containing the compound using the foregoing Carrageenan Induced Rat-Paw Edema test. The control rats were treated with cream having no test compound.
In addition, one preferred compound was tested further using the foregoing Carrageenan-Induced Rat-Paw Edema test at various concentrations in the cream of Formula B (pH=3.5).

[2] = tested on: Acetylcholine Induced Abdominal Constriction; test: Acetylcholine Induced Abdominal Constriction Test in Mice, dermal application (analgetic); type: in vivo, mouse; settings: Formula A cream pH = 7.0, 4 hr pretreatment
Procedure: Active agent was incorporated into the cream described under Formual A above (pH=7.0) at various concentrations calculated on a free acid basis.
Mice were prepared for the test by shaving an area measuring 3/4"×3/4" on their backs behind their heads and then depilating with Nair®, a cosmetic hair remover. The mice were given free access to feed and water prior to the experiment. On the following day the mice were weighed and fitted with a cardboard collar (13/4"×13/4" with a 1/2" hole in the center) around the neck to prevent ingestion of applied compounds. The mice were randomized into groups of 10 using random tables generated by the IBM scrambler. A table of random permutations of blocks of order 3 was used to select the control and treated groups. The randomized mice were fed and placed in individual observation cages 1 hr prior to application of 50 microliters of the cream (by rubbing onto the skin for approximately 10 seconds).
The mice acting as controls were treated with cream having no test compound in it. Four hours after the application of the cream to the depilated area, acetylcholine bromide was injected intraperitoneally at 6 mg/kg (10 ml/kg in saline) with a plastic syringe with a 5/8 inch, 25-gauge disposable needle. Each mouse was immediately placed under an inverted 1 liter beaker and observed for 3 minutes for the presence of abdominal constriction. If no abdominal constriction was observed during this period, the response was considered blocked. ED50 and 95% confidence limits were determined by computer using a probit analysis method. Ten mice were used at each concentration, including controls.
The following results in Table 5 were obtained using the foregoing method using the cream of Formula A (pH=7.0) as described above having mixed therein the compound of Example 74 in comparison to controls wherein no test compound was present.

[3] = quotation from Remington's, 16th Ed., page 1523; cited from earlier work
[4] = Table 3, Formula A cream, pH = 7.0, 0.2 ml, 3.2% by weight (free acid basis or ester), dermal
[5] = Table 3, Formula A cream, pH = 7.0, 0.2 ml, 3.2% by weight, dermal, p = <0.05
[6] = Table 4, first series, Formula B pH 3.5, 0.032 % (W/W), 0.37 mg/kg dermal
[7] = Table 4, second series, Formula B pH 3.5, 0.01 % (W/W), 0.10 mg/kg dermal
[8] = Table 4, second series, Formula B pH 3.5, 0.032 % (W/W), 0.32 mg/kg dermal
[9] = Table 4, second series, Formula B pH 3.5, 0.10 % (W/W), 0.94 mg/kg dermal

CCOC(=O)Cc1cccc(C(=O)c2ccccc2)c1N [Example 5, 2-Amino-3-benzoylbenzeneacetic acid, ethyl ester]
Measurement of Edema at 3 hr. [1, 4]: 0.27 ± 0.18 ml ± S.D. | % Change (edema vs control) [1, 5]: -71%

CSc1ccc(C(=O)c2cc(F)cc(CC(=O)O)c2N)cc1 [Example 19, 2-Amino-3-[(4-methylthio)benzoyl]-5-fluorobenzeneacetic acid, sodium salt]
Measurement of Edema at 3 hr. [1, 4]: 0.55 ± 0.14 ml ± S.D. | % Change (edema vs control) [1, 5]: -41%

Cc1ccc(C(=O)c2cc(Cl)cc(CC(=O)O)c2N)cc1 [Example 55, 2-Amino-3-(4-methylbenzoyl)-5-chlorobenzeneacetic acid, sodium salt, hydrate [4:3]]
Measurement of Edema at 3 hr. [1, 4]: 0.33 ± 0.20 ml ± S.D. | % Change (edema vs control) [1, 5]: -64%

Nc1c(CC(=O)O)cccc1C(=O)c1ccc(I)cc1 [Example 57, 2-Amino-3-(4-iodobenzoyl)benzeneacetic acid, sodium salt, hydrate [4:1]]
Measurement of Edema at 3 hr. [1, 4]: 0.40 ± 0.14 ml ± S.D. | % Change (edema vs control) [1, 5]: -57%

CCOC(=O)Cc1cccc(C(=O)c2ccc(Br)cc2)c1N [Example 69, 2-Amino-3-(4-bromobenzoyl)benzeneacetic acid, ethyl ester]
Measurement of Edema at 3 hr. [1, 4]: 0.50 ± 0.20 ml ± S.D. | % Change (edema vs control) [1, 5]: -46%

Nc1c(CC(=O)O)cccc1C(=O)c1ccc(Br)cc1 [Example 74, 2-Amino-3-(4-bromobenzoyl)benzeneacetic acid, sodium salt, sesquihydrate]
Measurement of Edema at 3 hr. ([1]; Table 3, Formula B cream, pH = 3.5, 0.2 ml, 3.2% by weight (free acid basis), dermal): 0.48 ± 0.17 ml ± S.D. | Measurement of Edema at 3 hr. ([1]; Table 3, Formula B cream, pH = 3.5, 0.2 ml, 3.2% by weight (free acid basis), dermal, sodium salt, sesquihydrate): 0.38 ± 0.18 ml ± S.D. | 3 Hr. Edema [1, 6]: 0.73 ± 0.33 ml ± S.D. | % Change (edema vs control) [1, 6]: -26% | % Change (edema vs control) ([1]; Table 4, first series, Formula B pH 3.5, 0.10 % (W/W), 1.1 mg/kg dermal): -57% | 3 Hr. Edema ([1]; Table 4, first series, Formula B pH 3.5, 0.10 % (W/W), 1.1 mg/kg dermal, p < 0.05): 0.42 ± 0.21 ml ± S.D. | % Change (edema vs control) ([1]; Table 4, first series, Formula B pH 3.5, 0.32 % (W/W), 3.7 mg/kg dermal): -62% | 3 Hr. Edema ([1]; Table 4, first series, Formula B pH 3.5, 0.32 % (W/W), 3.7 mg/kg dermal, p < 0.05): 0.37 ± 0.19 ml ± S.D. | % Change (edema vs control) ([1]; Table 4, first series, Formula B pH 3.5, 1.0 % (W/W), 11.9 mg/kg dermal): -57% | 3 Hr. Edema ([1]; Table 4, first series, Formula B pH 3.5, 1.0 % (W/W), 11.9 mg/kg dermal, p < 0.05): 0.42 ± 0.10 ml ± S.D. | % Change (edema vs control) ([1]; Table 4, first series, Formula B pH 3.5, 3.16 % (W/W), 36.5 mg/kg dermal): -61% | 3 Hr. Edema ([1]; Table 4, first series, Formula B pH 3.5, 3.16 % (W/W), 36.5 mg/kg dermal, p < 0.05): 0.38 ± 0.18 ml ± S.D. | 3 Hr. Edema [1, 7]: 0.88 ± 0.33 ml ± S.D. | % Change (edema vs control) [1, 7]: +3% | 3 Hr. Edema [1, 8]: 1.05 ± 0.22 ml ± S.D. | % Change (edema vs control) [1, 8]: +22% | 3 Hr. Edema [1, 9]: 0.55 ± 0.20 ml ± S.D. | % Change (edema vs control) [1, 9]: -36% | % Change (edema vs control) ([1]; Table 4, second series, Formula B pH 3.5, 0.32 % (W/W), 3.0 mg/kg dermal): -52% | 3 Hr. Edema ([1]; Table 4, second series, Formula B pH 3.5, 0.32 % (W/W), 3.0 mg/kg dermal, p < 0.05): 0.42 ± 0.15 ml ± S.D. | % Change (edema vs control) ([1]; Table 4, second series, Formula B pH 3.5, 1.0 % (W/W), 10.3 mg/kg dermal): -57% | 3 Hr. Edema ([1]; Table 4, second series, Formula B pH 3.5, 1.0 % (W/W), 10.3 mg/kg dermal, p < 0.05): 0.37 ± 0.05 ml ± S.D. | % Change (edema vs control) ([1]; Table 4, second series, Formula B pH 3.5, 3.16 % (W/W), 31.5 mg/kg dermal): -44% | 3 Hr. Edema ([1]; Table 4, second series, Formula B pH 3.5, 3.16 % (W/W), 31.5 mg/kg dermal, p < 0.05): 0.48 ± 0.17 ml ± S.D. | Activity against edema compared with indomethacin applied dermally or orally ([1]; comparative study, Example 74 applied dermally to rats): more active against the Edema than indomethacin applied dermally or orally | Activity applied dermally compared with orally for a given dose ([1]; comparative study): about as active applied dermally as it was orally for a given dose | % Block ([2]; 0.01 wt. % in 50 μl cream): 0% | % Block ([2]; 0.032 wt. % in 50 μl cream): 20% | % Block ([2]; 0.10 wt. % in 50 μl cream): 60% | % Block ([2]; 0.32 wt. % in 50 μl cream): 80% | % Block ([2]; 1.0 wt. % in 50 μl cream): 80% | % Block ([2]; 3.16 wt. % in 50 μl cream): 90% | ED50 as % Concentration of Agent in Cream (95% Confidence Limits) ([2]; probit analysis, 95% confidence limits (0.06-0.29)): 0.128%

COc1ccc2c(c1)c(CC(=O)O)c(C)n2C(=O)c1ccc(Cl)cc1 [indomethacin, reference compound]
Activity applied dermally compared with orally for a given dose ([1]; comparative study): markedly less active when applied dermally than when given orally for a given dose

O=C([O-])c1ccccc1O.[Na+] [sodium salicylate]
Skin permeation compared with salicylic acid [3]: permeates poorly compared with salicylic acid
